Measurements taken from ChEMBL document CHEMBL1141735, “HIV-inhibitory and cytotoxic oligostilbenes from the leaves of Hopea malibato” (J Nat Prod, 1998).
≈ marks a conversion by molar mass, not a printed value.

Legend:
[1] = tested on: Human immunodeficiency virus; test: Antiviral activity against HIV infected in human CEM-SS cells; format: functional, organism-based; settings: Human immunodeficiency virus 1, CEM-SS
CEM-SS = test: Cytotoxicity against human CEM-SS cells; format: cell-based

Row | EC50 [1] | SMILES | IC50 (CEM-SS)
1 | 20 µg/mL (≈ 42.5 µM) | Oc1ccc([C@H]2c3c(O)cc(O)cc3[C@@H]3c4c(cc(O)cc4[C@H]2O)O[C@H]3c2ccc(O)cc2)cc1 [BALANOCARPOL] | –
2 | 46 µg/mL (≈ 49 µM) | Oc1ccc([C@H]2c3c(O)cc(O)cc3[C@@H]3c4c(cc(O)cc4[C@]2(O)[C@@]2(O)c4cc(O)cc5c4[C@@H](c4cc(O)cc(O)c4[C@@H]2c2ccc(O)cc2)[C@H](c2ccc(O)cc2)O5)O[C@H]3c2ccc(O)cc2)cc1 [DIBALANOCARPOL] | –
3 | – | Oc1ccc(-c2oc3cc(O)cc4c3c2-c2cc(O)cc(O)c2[C@H](c2ccc(O)cc2)[C@H]4O)cc1 [MALIBATOL A] | 13 µg/mL (≈ 27.8 µM)
4 | – | Oc1ccc([C@H]2c3c(O)cc(O)c(O)c3-c3c(-c4ccc(O)c(O)c4)oc4cc(O)cc(c34)[C@@H]2O)cc1 [MALIBATOL B] | 21 µg/mL (≈ 42 µM)
